US20220194940A1, “HETEROCYCLIC INHIBITORS OF TYROSINE KINASE” (Board of Regents, The University of Texas System, priority 2019, published 2022)

Legend:
Assay type in all cases: cell-based
EGFR H773L/V774M = molecular target: T1, EGFR H773L/V774M (Homo sapiens, UniProt P00533, H773L/V774M); assay: Ba/F3 cell viability, EGFR H773L/V774M; details: logarithm of IC50
T1 construct: expressed in transfected cells; host or cells: Ba/F3 (retroviral transduction, pBABE-Puro-based vectors)
Method: (§1) 72 hours after transduction, 2 μg/ml puromycin (Invitrogen) was added to the medium.

EGFR D770del insGY = molecular target: T2, EGFR D770del insGY (Homo sapiens, UniProt P00533, D770Y/INS769G); assay: Ba/F3 cell viability, EGFR D770del insGY; details: logarithm of IC50
T2 construct: expressed in transfected cells; host or cells: Ba/F3 (retroviral transduction, pBABE-Puro-based vectors)
Method: as §1

EGFR A767insASV = EGFR A767insASV (Homo sapiens, UniProt P00533, cells depend on it, form not given); assay: Ba/F3 cell viability, EGFR A767insASV; details: logarithm of IC50, second listing in Table 2 (r23)
Method: as §1

EGFR WT = molecular target: T3, EGFR WT (Homo sapiens, UniProt P00533); assay: Ba/F3 cell viability (Cell Titer Glo), WT EGFR
T3 construct: expressed in transfected cells; host or cells: Ba/F3 (retroviral transduction, pBABE-Puro-based vectors)
Method: as §1

EGFR P772insDNP = molecular target: T4, EGFR P772insDNP (Homo sapiens, UniProt P00533, INS772DNP); assay: Ba/F3 cell viability, EGFR P772insDNP; details: logarithm of IC50
T4 construct: expressed in transfected cells; host or cells: Ba/F3 (retroviral transduction, pBABE-Puro-based vectors)
Method: as §1

EGFR N771insSVDNR = molecular target: T5, EGFR N771insSVDNR (Homo sapiens, UniProt P00533, INS771SVDNR); assay: Ba/F3 cell viability, EGFR N771insSVDNR
T5 construct: expressed in transfected cells; host or cells: Ba/F3 (retroviral transduction, pBABE-Puro-based vectors)
Method: as §1

EGFR S768dupSVD/C797S = molecular target: T6, EGFR S768dupSVD/C797S (Homo sapiens, UniProt P00533, C797S/DUP768-770); assay: Ba/F3 cell viability, EGFR S768dupSVD/C797S; details: logarithm of IC50
T6 construct: expressed in transfected cells; host or cells: Ba/F3 (retroviral transduction, pBABE-Puro-based vectors)
Method: as §1

EGFR S768I T790M = molecular target: T7, EGFR S768I T790M (Homo sapiens, UniProt P00533, S768I/T790M); assay: Ba/F3 cell viability, EGFR S768I T790M; details: logarithm of IC50
T7 construct: expressed in transfected cells; host or cells: Ba/F3 (retroviral transduction, pBABE-Puro-based vectors)
Method: as §1

EGFR V769L = molecular target: T8, EGFR V769L (Homo sapiens, UniProt P00533, V769L); assay: Ba/F3 cell viability, EGFR V769L; details: logarithm of IC50
T8 construct: expressed in transfected cells; host or cells: Ba/F3 (retroviral transduction, pBABE-Puro-based vectors)
Method: as §1

EGFR V769insGVV = molecular target: T9, EGFR V769insGVV (Homo sapiens, UniProt P00533, INS769GVV); assay: Ba/F3 cell viability, EGFR V769insGVV; details: logarithm of IC50
T9 construct: expressed in transfected cells; host or cells: Ba/F3 (retroviral transduction, pBABE-Puro-based vectors)
Method: as §1

EGFR D770insNPG/C797S = molecular target: T10, EGFR D770insNPG/C797S (Homo sapiens, UniProt P00533, C797S/INS770NPG); assay: Ba/F3 cell viability, EGFR D770insNPG/C797S; details: logarithm of IC50
T10 construct: expressed in transfected cells; host or cells: Ba/F3 (retroviral transduction, pBABE-Puro-based vectors)
Method: as §1

EGFR D770insNPG/T790M = molecular target: T11, EGFR D770insNPG/T790M (Homo sapiens, UniProt P00533, INS770NPG/T790M); assay: Ba/F3 cell viability, EGFR D770insNPG/T790M; details: logarithm of IC50
T11 construct: expressed in transfected cells; host or cells: Ba/F3 (retroviral transduction, pBABE-Puro-based vectors)
Method: as §1

EGFR V769insMASVD = molecular target: T12, EGFR V769insMASVD (Homo sapiens, UniProt P00533, INS769MASVD); assay: Ba/F3 cell viability, EGFR V769insMASVD; details: logarithm of IC50
T12 construct: expressed in transfected cells; host or cells: Ba/F3 (retroviral transduction, pBABE-Puro-based vectors)
Method: as §1

EGFR V769insGSV = molecular target: T13, EGFR V769insGSV (Homo sapiens, UniProt P00533, INS769GSV); assay: Ba/F3 cell viability, EGFR V769insGSV; details: logarithm of IC50
T13 construct: expressed in transfected cells; host or cells: Ba/F3 (retroviral transduction, pBABE-Puro-based vectors)
Method: as §1

EGFR A767insTLA = molecular target: T14, EGFR A767insTLA (Homo sapiens, UniProt P00533, INS767TLA); assay: Ba/F3 cell viability, EGFR A767insTLA; details: logarithm of IC50
T14 construct: expressed in transfected cells; host or cells: Ba/F3 (retroviral transduction, pBABE-Puro-based vectors)
Method: as §1

EGFR H773insAH = molecular target: T15, EGFR H773insAH (Homo sapiens, UniProt P00533, INS773AH); assay: Ba/F3 cell viability, EGFR H773insAH; details: logarithm of IC50
T15 construct: expressed in transfected cells; host or cells: Ba/F3 (retroviral transduction, pBABE-Puro-based vectors)
Method: as §1

EGFR S768dupSVD/T790M = molecular target: T16, EGFR S768dupSVD/T790M (Homo sapiens, UniProt P00533, DUP768-770/T790M); assay: Ba/F3 cell viability, EGFR S768dupSVD/T790M; details: logarithm of IC50
T16 construct: expressed in transfected cells; host or cells: Ba/F3 (retroviral transduction, pBABE-Puro-based vectors)
Method: as §1

EGFR N771insHH = molecular target: T17, EGFR N771insHH (Homo sapiens, UniProt P00533, INS771HH); assay: Ba/F3 cell viability, EGFR N771insHH; details: logarithm of IC50
T17 construct: expressed in transfected cells; host or cells: Ba/F3 (retroviral transduction, pBABE-Puro-based vectors)
Method: as §1

T3 sequence (P00533 25-1210): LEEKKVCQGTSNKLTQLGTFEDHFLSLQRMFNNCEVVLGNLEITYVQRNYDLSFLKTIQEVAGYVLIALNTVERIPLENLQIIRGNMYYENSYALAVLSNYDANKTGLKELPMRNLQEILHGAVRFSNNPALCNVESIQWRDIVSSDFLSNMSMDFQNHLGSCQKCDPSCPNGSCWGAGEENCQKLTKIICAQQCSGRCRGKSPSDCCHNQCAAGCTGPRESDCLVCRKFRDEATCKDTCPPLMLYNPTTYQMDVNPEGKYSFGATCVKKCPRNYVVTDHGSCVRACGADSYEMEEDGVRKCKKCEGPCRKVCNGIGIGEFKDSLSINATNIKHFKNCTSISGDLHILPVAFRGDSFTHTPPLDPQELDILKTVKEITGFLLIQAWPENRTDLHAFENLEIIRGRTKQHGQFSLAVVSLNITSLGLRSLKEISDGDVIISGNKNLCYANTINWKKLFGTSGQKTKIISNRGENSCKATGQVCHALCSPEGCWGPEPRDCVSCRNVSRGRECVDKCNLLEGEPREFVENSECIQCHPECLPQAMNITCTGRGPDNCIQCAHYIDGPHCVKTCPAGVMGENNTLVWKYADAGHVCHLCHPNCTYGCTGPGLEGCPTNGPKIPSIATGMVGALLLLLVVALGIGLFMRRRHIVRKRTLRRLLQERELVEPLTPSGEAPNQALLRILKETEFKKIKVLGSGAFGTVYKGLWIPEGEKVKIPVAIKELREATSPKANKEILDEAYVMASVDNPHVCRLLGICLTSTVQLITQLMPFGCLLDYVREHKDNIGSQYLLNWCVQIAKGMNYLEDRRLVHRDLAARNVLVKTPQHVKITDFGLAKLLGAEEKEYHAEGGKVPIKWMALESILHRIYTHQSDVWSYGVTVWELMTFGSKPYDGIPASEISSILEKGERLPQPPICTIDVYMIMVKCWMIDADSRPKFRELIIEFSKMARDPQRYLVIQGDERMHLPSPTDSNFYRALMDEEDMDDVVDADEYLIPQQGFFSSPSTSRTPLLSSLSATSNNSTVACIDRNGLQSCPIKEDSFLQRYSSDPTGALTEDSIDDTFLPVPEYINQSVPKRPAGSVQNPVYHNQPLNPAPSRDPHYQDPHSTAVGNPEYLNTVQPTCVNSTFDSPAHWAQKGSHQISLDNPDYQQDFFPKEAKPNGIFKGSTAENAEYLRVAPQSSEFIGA
T5 sequence (P00533 with tags, fused parts or gaps INS771SVDNR): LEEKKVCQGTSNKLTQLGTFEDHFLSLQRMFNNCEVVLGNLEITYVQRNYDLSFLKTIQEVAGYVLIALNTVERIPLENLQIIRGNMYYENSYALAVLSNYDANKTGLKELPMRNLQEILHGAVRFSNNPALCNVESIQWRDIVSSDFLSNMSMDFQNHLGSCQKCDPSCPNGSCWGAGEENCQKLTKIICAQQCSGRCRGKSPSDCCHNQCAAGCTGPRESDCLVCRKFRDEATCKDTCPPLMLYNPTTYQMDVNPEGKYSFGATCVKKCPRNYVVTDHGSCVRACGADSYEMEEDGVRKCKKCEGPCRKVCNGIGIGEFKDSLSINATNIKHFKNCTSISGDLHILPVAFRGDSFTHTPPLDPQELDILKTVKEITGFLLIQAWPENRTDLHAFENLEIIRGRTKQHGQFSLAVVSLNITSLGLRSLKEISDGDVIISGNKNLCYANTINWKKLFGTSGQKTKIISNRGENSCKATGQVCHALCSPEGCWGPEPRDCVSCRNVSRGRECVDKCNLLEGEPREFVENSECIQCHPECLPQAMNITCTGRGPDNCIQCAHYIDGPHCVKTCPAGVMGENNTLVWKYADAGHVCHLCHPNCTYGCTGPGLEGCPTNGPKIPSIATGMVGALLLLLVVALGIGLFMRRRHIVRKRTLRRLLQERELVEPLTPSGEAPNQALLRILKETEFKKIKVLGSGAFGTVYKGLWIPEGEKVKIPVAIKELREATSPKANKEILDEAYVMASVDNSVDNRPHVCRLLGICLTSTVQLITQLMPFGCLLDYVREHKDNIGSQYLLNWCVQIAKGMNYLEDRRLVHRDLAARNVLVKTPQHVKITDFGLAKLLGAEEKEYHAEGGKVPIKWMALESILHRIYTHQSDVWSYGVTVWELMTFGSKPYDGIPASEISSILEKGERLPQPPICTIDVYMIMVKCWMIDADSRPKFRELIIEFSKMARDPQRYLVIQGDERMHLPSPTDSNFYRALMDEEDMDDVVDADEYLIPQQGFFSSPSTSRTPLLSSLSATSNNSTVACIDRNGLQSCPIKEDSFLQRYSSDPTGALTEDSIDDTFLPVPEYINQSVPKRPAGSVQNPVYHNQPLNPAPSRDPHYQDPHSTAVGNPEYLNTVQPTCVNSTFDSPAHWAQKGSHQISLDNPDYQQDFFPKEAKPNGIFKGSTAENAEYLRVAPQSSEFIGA
T15 sequence (P00533 with tags, fused parts or gaps INS773AH): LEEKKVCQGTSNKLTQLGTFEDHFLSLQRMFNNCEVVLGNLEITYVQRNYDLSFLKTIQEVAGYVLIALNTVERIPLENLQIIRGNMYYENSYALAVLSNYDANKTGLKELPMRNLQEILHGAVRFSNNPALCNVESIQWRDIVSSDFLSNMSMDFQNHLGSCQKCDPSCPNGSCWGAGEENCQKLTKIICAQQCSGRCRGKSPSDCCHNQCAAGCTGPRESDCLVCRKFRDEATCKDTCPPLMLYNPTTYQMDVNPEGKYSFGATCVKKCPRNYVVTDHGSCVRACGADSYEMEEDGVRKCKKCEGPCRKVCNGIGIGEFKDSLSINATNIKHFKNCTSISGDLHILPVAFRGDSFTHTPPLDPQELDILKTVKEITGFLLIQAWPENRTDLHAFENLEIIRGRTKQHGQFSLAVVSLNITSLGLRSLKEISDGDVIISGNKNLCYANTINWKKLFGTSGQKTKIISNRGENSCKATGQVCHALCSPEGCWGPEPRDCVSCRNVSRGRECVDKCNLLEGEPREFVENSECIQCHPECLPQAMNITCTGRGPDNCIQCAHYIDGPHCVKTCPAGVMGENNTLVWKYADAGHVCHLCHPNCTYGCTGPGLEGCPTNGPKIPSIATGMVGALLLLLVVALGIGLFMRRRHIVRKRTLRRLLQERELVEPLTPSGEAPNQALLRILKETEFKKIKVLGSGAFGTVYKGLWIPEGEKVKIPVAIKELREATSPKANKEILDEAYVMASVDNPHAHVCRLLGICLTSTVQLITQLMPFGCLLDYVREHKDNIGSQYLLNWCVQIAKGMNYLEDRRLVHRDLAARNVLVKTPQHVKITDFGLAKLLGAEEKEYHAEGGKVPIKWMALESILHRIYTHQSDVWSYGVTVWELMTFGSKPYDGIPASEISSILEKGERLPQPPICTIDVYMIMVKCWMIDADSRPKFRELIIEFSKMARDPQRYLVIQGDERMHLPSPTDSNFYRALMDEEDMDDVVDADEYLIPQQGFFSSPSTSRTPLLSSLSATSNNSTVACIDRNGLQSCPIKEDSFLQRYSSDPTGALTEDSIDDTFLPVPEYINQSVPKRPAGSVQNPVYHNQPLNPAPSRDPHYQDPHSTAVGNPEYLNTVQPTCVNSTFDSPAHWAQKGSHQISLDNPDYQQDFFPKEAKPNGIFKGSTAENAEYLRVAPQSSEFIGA
T9 sequence (P00533 with tags, fused parts or gaps INS769GVV): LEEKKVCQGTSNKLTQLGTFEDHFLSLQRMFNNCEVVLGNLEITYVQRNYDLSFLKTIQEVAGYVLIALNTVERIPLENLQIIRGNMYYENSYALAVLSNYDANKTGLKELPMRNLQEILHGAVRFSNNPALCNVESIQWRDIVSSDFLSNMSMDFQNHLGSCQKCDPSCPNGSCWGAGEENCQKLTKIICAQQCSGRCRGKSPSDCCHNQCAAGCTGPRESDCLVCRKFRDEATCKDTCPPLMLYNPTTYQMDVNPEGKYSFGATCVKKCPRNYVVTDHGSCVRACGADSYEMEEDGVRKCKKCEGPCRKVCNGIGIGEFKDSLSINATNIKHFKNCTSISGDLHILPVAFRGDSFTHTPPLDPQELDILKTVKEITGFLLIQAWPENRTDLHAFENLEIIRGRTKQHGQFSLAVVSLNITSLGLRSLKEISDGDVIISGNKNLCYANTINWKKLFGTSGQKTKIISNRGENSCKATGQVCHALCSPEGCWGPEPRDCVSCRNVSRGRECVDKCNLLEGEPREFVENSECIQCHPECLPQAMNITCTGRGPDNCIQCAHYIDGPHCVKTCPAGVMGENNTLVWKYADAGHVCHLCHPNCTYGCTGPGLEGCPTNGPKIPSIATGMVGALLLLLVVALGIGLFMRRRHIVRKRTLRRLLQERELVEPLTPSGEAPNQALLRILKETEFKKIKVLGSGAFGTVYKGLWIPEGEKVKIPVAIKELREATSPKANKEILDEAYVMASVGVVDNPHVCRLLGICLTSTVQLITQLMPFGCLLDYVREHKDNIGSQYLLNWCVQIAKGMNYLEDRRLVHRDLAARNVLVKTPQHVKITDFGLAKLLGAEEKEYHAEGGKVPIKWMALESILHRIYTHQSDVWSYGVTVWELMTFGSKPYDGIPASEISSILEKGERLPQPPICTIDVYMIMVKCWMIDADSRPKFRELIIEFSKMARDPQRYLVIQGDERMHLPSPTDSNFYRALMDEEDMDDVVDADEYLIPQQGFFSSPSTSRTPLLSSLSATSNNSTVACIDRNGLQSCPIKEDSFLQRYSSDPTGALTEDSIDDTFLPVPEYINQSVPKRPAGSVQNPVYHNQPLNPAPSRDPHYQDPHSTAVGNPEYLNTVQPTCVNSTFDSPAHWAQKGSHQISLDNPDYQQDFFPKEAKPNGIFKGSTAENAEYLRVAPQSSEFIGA

| Structure (SMILES) | Log(IC50, nM) (EGFR H773L/V774M) | Log(IC50, nM) (EGFR D770del insGY) | Log(IC50, nM) (EGFR A767insASV) [nM] | Log(IC50, nM) (EGFR WT; Ba/F3 EGFR WT, comparison line of Table 3) | Log(IC50, nM) (EGFR WT; logarithm of IC50, Ba/F3 cells expressing EGFR WT, Cell Titer Glo, 3 days, Table 2) | Log(IC50, nM) (EGFR P772insDNP) | Log(IC50, nM) (EGFR N771insSVDNR; logarithm of IC50, first listing in Table 2 (r10)) | Log(IC50, nM) (EGFR N771insSVDNR; logarithm of IC50, second listing in Table 2 (r26)) | Log(IC50, nM) (EGFR S768dupSVD/C797S) | Log(IC50, nM) (EGFR S768I T790M) | Log(IC50, nM) (EGFR V769L) | Log(IC50, nM) (EGFR V769insGVV) | Log(IC50, nM) (EGFR D770insNPG/C797S) | Log(IC50, nM) (EGFR D770insNPG/T790M) | Log(IC50, nM) (EGFR V769insMASVD) | Log(IC50, nM) (EGFR V769insGSV) | Log(IC50, nM) (EGFR A767insTLA) | Log(IC50, nM) (EGFR H773insAH) | Log(IC50, nM) (EGFR S768dupSVD/T790M) | Log(IC50, nM) (EGFR N771insHH) |
| --- | --- | --- | --- | --- | --- | --- | --- | --- | --- | --- | --- | --- | --- | --- | --- | --- | --- | --- | --- | --- |
| CN(C)C/C=C/C(=O)Nc1cc2c(Nc3ccc(Cl)c(Cl)c3)ncnc2cn1 [Example 2, (E)-N-(4-((3,4-dichlorophenyl)amino)pyrido[3,4-d]pyrimidin-6-yl)-4-(dimethylamino)but-2-enamide] | 1.41 log(nM) | 0.71 log10(nM) | 0.51 | 1.03 log(nM) | 1.03 log(nM) | 0.94 log(nM) | 0.98 log(nM) | 1.08 log(nM) | 3.06 log(nM) | 0.81 log10(nM) | 0.98 log(nM) | 1.40 log(nM) | 2.73 log10(nM) | 2.40 log10(nM) | 0.88 log10(nM) | 0.98 log(nM) | 0.83 log(nM) | 0.88 log10(nM) | 2.73 log10(nM) | 0.33 log10(nM) |
| CN(C)C/C=C/C(=O)Nc1cc2c(Nc3ccc(Cl)c(Br)c3)ncnc2cn1 [Example 1, (E)-N-(4-((3-Bromo-4-chlorophenyl)amino)pyrido[3,4-d]pyrimidin-6-yl)-4-(dimethylamino)but-2-enamide] |  |  | 0.55 |  |  |  |  |  |  |  |  |  |  |  |  |  |  |  |  |  |
